Measured values from paper PMC11224282, “Insight into binding of endogenous neurosteroid ligands to the sigma-1 receptor” (Nature Communications, 2024).
Read-outs that look alike come from different tables or passages of the source.

Molecular target: T1, xlσ1R E169A (Xenopus laevis, UniProt Q6DCU6, E169A)
T1 construct: hemagglutinin signal peptide (N); made in house; host or cells: Pichia pastoris GS115
T1 sequence (Q6DCU6 1-221 E169A): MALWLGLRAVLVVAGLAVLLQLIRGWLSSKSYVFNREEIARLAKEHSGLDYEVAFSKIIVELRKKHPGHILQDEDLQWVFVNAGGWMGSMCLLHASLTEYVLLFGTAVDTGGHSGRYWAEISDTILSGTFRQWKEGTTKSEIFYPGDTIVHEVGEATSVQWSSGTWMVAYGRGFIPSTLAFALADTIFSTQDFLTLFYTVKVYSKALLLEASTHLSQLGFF
Assay: Microscale thermophoresis (MST) binding to xlσ1R E169A mutant

`CC(=O)[C@H]1CC[C@H]2[C@@H]3CCC4=CC(=O)CC[C@]4(C)[C@H]3CC[C@]12C` [progesterone] was tested. Which Kd (MST, xlσ1R E169A, N = 3, mean (± SD), read-out: Kd (mean)) did it give?
Its Kd is 980 ± 180 nM.

And the Kd (Source Data sheet Supplementary Table 3, E169A, mean of 3, read-out: Kd Mean)?
The Kd was 990 nM.

And the Kd (Source Data sheet Supplementary Table 3, E169A, repeat 1, read-out: Kd Repeat 1)?
The Kd was 920 nM.

What about the Kd (Source Data sheet Supplementary Table 3, E169A, repeat 2, read-out: Kd Repeat 2) of the same compound?
The Kd was 1190 nM.

What about the Kd (Source Data sheet Supplementary Table 3, E169A, repeat 3, read-out: Kd Repeat 3) of the same compound?
Its Kd is 850 nM.
